# Entries after “also recorded” stand apart in the source; their conditions may differ. Counter-ions that a name gives are not always drawn. Like-named read-outs stand apart in the source and are kept apart here.
# What was measured:
# [1] = test system: Cremophor-induced force development in the jugular vein (thromboxane A2 receptors); assay: Inhibition of Cremophor-induced force in the jugular vein; format: cell-based, rabbit; conditions: for Effect on vasoconstrictor effects of Cremophor (words): indomethacin 10 μM
# Method: (§1) Male New Zealand white rabbits were euthanized by intravenous barbiturate overdose. The thoracic aorta and the left and right external jugular veins were then removed into warm (37° C.) physiological salt solution (PSS) of the following composition (mM): NaCl, 118.4; KCl, 4.7; CaCl2, 2.5; MgSO4, 1.2; NaHCO3, 24.9; KH2 PO4, 1.2; glucose, 11.1 and EDTA, 0.023; gassed with 95% O2 /5% CO2, pH 7.4. The vessels were cleaned of fat and loose adventitia and subsequently cut into rings 3-4 mm in width. The endothelium was removed from the rings, unless otherwise indicated, by gently rotating a metal probe in the lumen of the ring. The rings were then suspended in water-jacketed (37° C.) 10 ml tissue baths between two wire holders, one of which was attached to a fixed hook and the other to an isometric force transducer. Resting tension was set at 4 g for the aorta and 1 g for the jugular vein. The venous tissues were allowed to stabilize for a period of one hour and then challenged with a maximally effective concentration of bradykinin (1 μM) to evoke a tonic contracture. This response was used as a comparative reference response. Carbachol (1 μM) was introduced into the bath following stabilization of the bradykinin contracture to test for the presence of endothelium. […] The tissues were washed multiple times with fresh PSS and allowed to recover for one hour following complete relaxation from the previous bradykinin response. […] Inhibitors (enzyme or receptor) or their vehicle were introduced into the tissue bath 30 mins prior to the addition of stimulant.
# (§2) Cremophor and ricinoleic acid (Sigma Chemical company) were also diluted in ethanol. […] Ricinoleic acid was diluted in ethanol to produce final bath concentrations of (μg/ml; final bath concentration of ethanol in parentheses): 0.1 (0.1%), 0.3 (0.3%), 1.0 (0.37%), 3.0 (0.57%), 10 (0.64%), 30 (0.84%). For reference, 0.1-30 μg/ml ricinoleic acid corresponds to a molar concentration range of 0.335-100.50 μM.
# (§3) Force (mean±S.E.) is expressed as a percentage of the corresponding bradykinin or phenylephrine reference response. KB values were determined by Schild analysis and KBapp by the following formula: KBapp =[antagonist]/agonist concentration ratio-1, where agonist concentration ratio=agonist EC50 measured in presence of antagonist/agonist EC50 measured in presence of vehicle. The statistical significance between means was determined using Student's t-test with p<0.05 considered statistically significant.
# [2] = biological target: T1, thromboxane A2 /prostaglandin endoperoxide receptor (Oryctolagus cuniculus, UniProt Q6WQI8); assay: Antagonism of U-46,619-induced force in the jugular vein; format: cell-based; conditions: rabbit jugular vein
# T1 sequence (Q6WQI8 1-233): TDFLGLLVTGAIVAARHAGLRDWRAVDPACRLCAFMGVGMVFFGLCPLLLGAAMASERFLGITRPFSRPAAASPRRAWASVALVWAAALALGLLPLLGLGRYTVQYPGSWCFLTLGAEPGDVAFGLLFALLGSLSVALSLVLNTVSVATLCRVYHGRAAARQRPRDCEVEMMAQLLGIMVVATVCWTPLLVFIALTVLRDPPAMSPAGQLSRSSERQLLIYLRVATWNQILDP
# Method: as §1, with “stimulant. […]” for “stimulant.”
# as §3
# [3] = test system: Cremophor-induced force in the aorta (thromboxane A2 receptors); assay: Antagonism of Cremophor-induced force in the aorta; format: cell-based, rabbit
# Method: Male New Zealand white rabbits were euthanized by intravenous barbiturate overdose. The thoracic aorta and the left and right external jugular veins were then removed into warm (37° C.) physiological salt solution (PSS) of the following composition (mM): NaCl, 118.4; KCl, 4.7; CaCl2, 2.5; MgSO4, 1.2; NaHCO3, 24.9; KH2 PO4, 1.2; glucose, 11.1 and EDTA, 0.023; gassed with 95% O2 /5% CO2, pH 7.4. The vessels were cleaned of fat and loose adventitia and subsequently cut into rings 3-4 mm in width. The endothelium was removed from the rings, unless otherwise indicated, by gently rotating a metal probe in the lumen of the ring. The rings were then suspended in water-jacketed (37° C.) 10 ml tissue baths between two wire holders, one of which was attached to a fixed hook and the other to an isometric force transducer. Resting tension was set at 4 g for the aorta and 1 g for the jugular vein. […]
# as §3
# [4] = test system: ricinoleic acid-induced force in the jugular vein (thromboxane A2 receptors); assay: Antagonism of ricinoleic acid-induced force in the jugular vein; format: cell-based, rabbit; conditions: for Effect on ricinoleic acid-induced force (words): indomethacin, vein only
# Method: as §1, with “stimulant. A similar procedure was followed for the aorta except the effects of carbachol (1 μM) were tested against a submaximal concentration of phenylephrine (0.3 μM) and 30 μM phenylephrine was used to establish a reference contracture.” for “stimulant.”
# as §2, §3
# [5] = biological target: T2, ricinoleic acid-induced force in the aorta (thromboxane A2 receptors) (Oryctolagus cuniculus, UniProt Q6WQI8); assay: Antagonism of ricinoleic acid-induced force in the aorta; format: cell-based, rabbit
# T2 sequence (Q6WQI8 1-233): T1 sequence (Q6WQI8 1-233)
# Method: as §1, with “stimulant. […]” for “stimulant.”
# as §3
# jugular vein [6] = assay: Effect on ethanol-induced contraction of the jugular vein; format: cell-based, rabbit; conditions: 0.1 or 1 μM BMS-180291; n=3
# [7] = biological target: thromboxane A2 /prostaglandin endoperoxide receptor; conditions: against U-46,619-induced force; rat aorta; Ogletree et al 1993; cited from earlier work
# [8] = biological target: T1, thromboxane A2 /prostaglandin endoperoxide receptor; conditions: against U-46,619-induced force; rabbit aorta; S. Moreland, unpublished; cited from earlier work
# [9] = test system: U-46,619-evoked platelet shape change; conditions: Ogletree et al 1993; cited from earlier work
# [10] = test system: U-46,619-induced platelet aggregation; conditions: Ogletree et al 1993; cited from earlier work
# thromboxane A2 receptors = assay: Potency of U-46,619 across rabbit jugular vein, rabbit aorta and rat aorta; format: cell-based; conditions: rabbit aorta, rat aorta, present study and cited work
# [11] = test system: tissues with an intact endothelium; assay: Relaxation of endothelium-intact tissues by carbachol; format: cell-based, rabbit; conditions: Oryctolagus cuniculus; carbachol (1 μM) on bradykinin contracture
# Method: Male New Zealand white rabbits were euthanized by intravenous barbiturate overdose. The thoracic aorta and the left and right external jugular veins were then removed into warm (37° C.) physiological salt solution (PSS) of the following composition (mM): NaCl, 118.4; KCl, 4.7; CaCl2, 2.5; MgSO4, 1.2; NaHCO3, 24.9; KH2 PO4, 1.2; glucose, 11.1 and EDTA, 0.023; gassed with 95% O2 /5% CO2, pH 7.4. The vessels were cleaned of fat and loose adventitia and subsequently cut into rings 3-4 mm in width. The endothelium was removed from the rings, unless otherwise indicated, by gently rotating a metal probe in the lumen of the ring. The rings were then suspended in water-jacketed (37° C.) 10 ml tissue baths between two wire holders, one of which was attached to a fixed hook and the other to an isometric force transducer. Resting tension was set at 4 g for the aorta and 1 g for the jugular vein. The venous tissues were allowed to stabilize for a period of one hour and then challenged with a maximally effective concentration of bradykinin (1 μM) to evoke a tonic contracture. This response was used as a comparative reference response. Carbachol (1 μM) was introduced into the bath following stabilization of the bradykinin contracture to test for the presence of endothelium. […]
# [12] = biological target: T3, CsA-induced force development in the jugular vein (thromboxane A2 receptors) (Oryctolagus cuniculus, UniProt Q6WQI8); assay: Inhibition of CsA-induced force in the jugular vein; format: cell-based, rabbit; conditions: for Effect on potency and maximal contractile effect of CsA (words): phentolamine 10 μM
# T3 sequence (Q6WQI8 1-233): T1 sequence (Q6WQI8 1-233)
# Method: as §1, §2, §3
# jugular vein [13] = assay: Force development in isolated jugular vein rings; format: cell-based, rabbit (male New Zealand white); conditions: for Force development / vasoconstriction (result in words): cumulative addition, isolated vessel; for EC50: read-out: EC50 for ricinoleic acid-induced force
# Method: as §1, §2, §3
# thromboxane A2 receptor = conditions: dog coronary artery, Cocks et al 1990; cited from earlier work
# aorta = assay: Force development in isolated thoracic aorta rings; format: cell-based, rabbit (male New Zealand white)
# Method: as §1, with “stimulant. […]” for “stimulant.”
# as §3
# rat aorta = assay: Ricinoleic acid force development in rat aorta; format: cell-based
# [14] = Solubility in physiological salt solution bath; format: physicochemical; conditions: pH 7.4, ricinoleic acid in tissue bath, read-out: Concentration at which precipitation begins
compound,measurement,setting,value
"CCCCCNC(=O)c1coc(C2C3CCC(O3)C2Cc2ccccc2CCC(=O)O)n1 (stereo not drawn) [BMS-180291, [1S-[1α, 2α, 3α, 4α)]-2-[[3-[[4-(pentylamino)carbonyl]-2-oxazolyl]-7-oxabicyclo [2.2.1]hept-2-yl]-methyl]benzenepropanoic acid, sodium salt]",inhibition at 0.1 µM,"[1]; Oryctolagus cuniculus, 0.1 μM BMS-180291, Cremophor 39 μg/ml, n=4, read-out: Relaxation of Cremophor-precontracted jugular vein",85.6 ± 3.9%
same,Nature of antagonism of Cremophor-induced responses,"[1]; preincubation with BMS-180291 (10-300 nM), sodium salt",consistent with non-competitive antagonism; also recorded: apparently non-competitive fashion
same,Kb,"[2]; against U-46,619-induced force",3.6 nM
same,Schild slope,"[2]; against U-46,619-induced force",1.0
same,"Nature of antagonism of U-46,619-induced force",[2]; sodium salt,apparently competitive antagonist
same,Effect on Cremophor-induced force in the aorta,[3]; BMS-180291,inhibited
same,Kb,"[3]; Oryctolagus cuniculus, against Cremophor-induced force, assuming competitive antagonism, 0.03 μM BMS-180291 only, read-out: KBapp",6.4 nM
same,Kb,"[4]; Oryctolagus cuniculus, against ricinoleic acid, vein, assuming competition, 0.03 and 0.1 μM BMS-180291 only, read-out: KBapp",1.9 nM
same,Antagonism of ricinoleic acid-induced force,[4]; vein,concentration-dependent antagonism
same,Schild slope,"[5]; against ricinoleic acid, rabbit aorta",0.70
same,Kb,"[5]; against ricinoleic acid, rabbit aorta, assuming competition",4.3 nM
same,Antagonism of ricinoleic acid-induced force,[5]; aorta,concentration-dependent antagonism
same,Effect on contractile effects of ethanol,jugular vein [6],completely refractory
same,Kb,[7],0.6 nM
same,Kb,[8],4 nM
same,Nature of antagonism of platelet shape change,[9],apparently competitive fashion
same,Nature of inhibition of platelet aggregation,[10],apparently non-competitive fashion
"CCCCCC(O)C=CC1C2CC(CO2)C1CC=CCCCC(=O)O (centres unmarked) [U-46,619, 11,9-epoxymethano-PGH2]",Potency across the three tissues,thromboxane A2 receptors,approximately equal potency in all three tissues
C[N+](C)(C)CCOC(N)=O [carbachol],Percent relaxation at 1 µM,[11],50 to 100%
CC1(C)Oc2ccc(C#N)cc2C(N2CCCC2=O)C1O (centres unmarked) [cromakalim],Effect on CsA-induced force,"[12]; CsA 3 μg/ml, present results",evoke relaxation of CsA (3 μg/ml CsA)-induced force
CCO [ethanol],Emax at 0.44 %,"jugular vein [13]; Oryctolagus cuniculus, cumulative addition of 0.44% ethanol, n=3, read-out: Force as % of bradykinin reference force",24.1 ± 3.3%
same,Force development / vasoconstriction (result in words),jugular vein [13],constrict the vein
COc1ccc(Cl)cc1C(=O)NCCc1ccc(S(=O)(=O)NC(=O)NC2CCCCC2)cc1 [glyburide],Schild slope,[12]; against CsA-induced force,0.7
same,Kb,"[12]; against CsA-induced force, Schild analysis, read-out: KB",600 nM
same,Kb,"[12]; against CsA-induced force, glyburide 10 μM, n=4, read-out: KBapp",1500 nM
same,inhibition at 10 µM,[12]; read-out: Inhibition (reversal) of CsA-induced contraction,57.1%
same,Kb,"[1]; Oryctolagus cuniculus, against Cremophor-induced force, glyburide 10 μM, n=3, read-out: KBapp",900 nM
same,Kb,thromboxane A2 receptor,600 nM
COc1ccc2c(c1)c(CC(=O)O)c(C)n2C(=O)c1ccc(Cl)cc1 [indomethacin],Effect on vasoconstrictor effects of Cremophor (words),[1],The contractile effects of neither ricinoleic acid nor Cremophor were prevented
same,Effect on vasoconstrictor effects of Cremophor (words),[1]; listed as Indomethacin,failed to significantly inhibit the vasoconstrictor effects of Cremophor
same,Effect on ricinoleic acid-induced force (words),[4],The contractile effects of neither ricinoleic acid nor Cremophor were prevented
same,Effect on ricinoleic acid-induced force (words),[4]; listed as Indomethacin,no significant effect on ricinoleic acid-induced force
Cc1ccc(N(CC2=NCCN2)c2cccc(O)c2)cc1 [phentolamine],Effect on potency and maximal contractile effect of CsA (words),[12],insensitive to phentolamine; also recorded: failed to antagonize the effects of CsA
same,Effect on potency and maximal contractile effect of CsA (words),[12]; listed as Phentolamine,significantly affected neither the potency nor the maximal contractile effect of CsA
CCCCCC[C@@H](O)C/C=C\CCCCCCCC(=O)O [ricinoleic acid],EC50,"jugular vein [13]; Oryctolagus cuniculus, control for indomethacin comparison, n=4",0.17 ± 0.05 µg/mL
same,EC50,"jugular vein [13]; Oryctolagus cuniculus, in presence of indomethacin, n=4",0.4 ± 0.11 µg/mL
same,EC50,"jugular vein [13]; Oryctolagus cuniculus, jugular vein, molar conversion",800 nM
same,EC50,"jugular vein [13]; Oryctolagus cuniculus, jugular vein, n=9",0.24 ± 0.04 µg/mL
same,Force development / vasoconstriction (result in words),jugular vein [13],cause vasoconstriction
same,Force development / vasoconstriction (result in words),jugular vein [13]; listed as Ricinoleic acid,concentration-dependent increases in force
same,Fold more potent than Cremophor,jugular vein [13]; in the vein,165 times
same,Fold more potent in vein than in aorta,"jugular vein [13]; ricinoleic acid, vein vs aorta",approximately 20 times
same,Thromboxane A2 agonist character,jugular vein [13]; summary conclusion,weak thromboxane A2 agonist
same,EC50,"aorta; Oryctolagus cuniculus, rabbit aorta, n=5, read-out: EC50 for ricinoleic acid-induced force",4.7 ± 0.7 µg/mL
same,Force development (result in words),aorta; aorta,concentration-dependent increases in force
same,Fold more potent than Cremophor,aorta; in the aorta,326 times
same,Emax at 100 µg/mL,"rat aorta; 100 μg/ml ricinoleic acid, rat aorta, n=4, read-out: Force as % of maximum phenylephrine-induced response",18.8 ± 2.5%
same,EC50,"rat aorta; rat aorta, n=4, read-out: EC50 for ricinoleic acid-induced force",> 10000 nM
same,Sensitivity of rat aorta,rat aorta; vs vein or rabbit aorta,considerably less sensitive
same,solubility,[14],≥ 100 µg/mL
